This note sets out measurements from ChEMBL document CHEMBL5108037, “Cyclic Peptide Screening Methods for Preclinical Drug Discovery” (J Med Chem, 2022).

For test [1], the target named is T1, E3 ubiquitin-protein ligase Mdm2 (Homo sapiens, UniProt Q00987). The test is described as follows: Binding affinity to MDM2 (unknown origin) by surface plasmon resonance analysis.
Test [2] concerns the target T1, E3 ubiquitin-protein ligase Mdm2. Nature of the test: Inhibition of MDM2 (unknown origin) by Fluorescence polarization assay. In general terms: Fluorescence polarisation rises when a labelled molecule tumbles more slowly, as on binding a larger partner.

T1 sequence (Q00987 whole entry): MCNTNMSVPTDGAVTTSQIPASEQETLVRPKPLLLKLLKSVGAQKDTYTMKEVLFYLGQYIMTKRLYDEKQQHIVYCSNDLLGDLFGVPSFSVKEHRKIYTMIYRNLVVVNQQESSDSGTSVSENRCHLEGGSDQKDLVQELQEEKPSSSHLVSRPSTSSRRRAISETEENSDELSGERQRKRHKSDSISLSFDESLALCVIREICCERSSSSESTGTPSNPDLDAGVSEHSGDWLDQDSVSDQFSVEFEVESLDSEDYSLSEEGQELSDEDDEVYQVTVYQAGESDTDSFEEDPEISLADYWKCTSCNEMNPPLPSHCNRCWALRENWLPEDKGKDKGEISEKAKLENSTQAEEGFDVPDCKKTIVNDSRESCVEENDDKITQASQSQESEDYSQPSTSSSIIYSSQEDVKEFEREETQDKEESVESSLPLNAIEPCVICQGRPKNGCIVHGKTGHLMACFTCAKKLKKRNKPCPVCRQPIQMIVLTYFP

`CN1CCC(=O)NCCSCCS(=O)(=O)CCN(Cc2ccc(C#N)cc2)CC(=O)N[C@@H](Cc2cc3ccc(Cl)cc3[nH]2)C1=O`: the equilibrium dissociation constant (Kd) (commonly the free concentration of one partner at which half of the binding sites on the other are occupied at equilibrium, for simple one-to-one binding) in test [1] was 5.5 µM. For the same molecule, half-maximal inhibition in test [2] (IC50) required 0.6 µM.
